Measured values reported in US12527844B2, “Pharmaceutical formulations” (Novo Nordisk A/S, priority 2020, dated 2026).
Read-outs that look alike come from different tables or passages of the source.

Key:
[1] = PK after single s.c. administration via prefilled dual chamber syringe or separate injections; type: in vivo, LYD pigs; conditions: for AUC/Dose [mean ± SD]: single s.c. dose
Description: Female cross bred domestic pigs (Danish Landrace, Yorkshire and Duroc—LYD pigs), having a body weight of approximately 80-100 kg, were used for exploring PK profiles.
A full plasma concentration-time profile was obtained from each animal, from pre-dosing to 18 days post dosing.
Plasma was analysed by means of Luminescence Oxygen Channelling Immunoassay (LOCI) and Liquid Chromatography-Mass Spectrometry (LCMS) for semaglutide and cagrilintide, respectively. Non-compartmental pharmacokinetic analysis, using individual plasma concentration-time profiles, was performed.

[2] = Semaglutide solubility in the pH range 3.5-7.5 (FIG. 2); type: physicochemical
Description: FIG. 2 depicts semaglutide solubility in the pH range 3.5-7.5. […] Concentrations below ca. 0.6 mM indicate that no more than the analysed amount of semaglutide can be dissolved when the pH is below about 5.9.

[3] = dual chamber syringe versus separate injections

Compound: CC[C@H](C)[C@H](NC(=O)[C@H](Cc1ccccc1)NC(=O)[C@H](CCC(=O)O)NC(=O)[C@H](CCCCNC(=O)COCCOCCNC(=O)COCCOCCNC(=O)CC[C@H](NC(=O)CCCCCCCCCCCCCCCCC(=O)O)C(=O)O)NC(=O)[C@H](C)NC(=O)[C@H](C)NC(=O)[C@H](CCC(N)=O)NC(=O)CNC(=O)[C@H](CCC(=O)O)NC(=O)[C@H](CC(C)C)NC(=O)[C@H](Cc1ccc(O)cc1)NC(=O)[C@H](CO)NC(=O)[C@H](CO)NC(=O)[C@@H](NC(=O)[C@H](CC(=O)O)NC(=O)[C@H](CO)NC(=O)[C@@H](NC(=O)[C@H](Cc1ccccc1)NC(=O)[C@@H](NC(=O)CNC(=O)[C@H](CCC(=O)O)NC(=O)C(C)(C)NC(=O)[C@@H](N)Cc1cnc[nH]1)[C@@H](C)O)[C@@H](C)O)C(C)C)C(=O)N[C@@H](C)C(=O)N[C@@H](Cc1c[nH]c2ccccc12)C(=O)N[C@@H](CC(C)C)C(=O)N[C@H](C(=O)N[C@@H](CCCNC(=N)N)C(=O)NCC(=O)N[C@@H](CCCNC(=N)N)C(=O)NCC(=O)O)C(C)C [semaglutide, N^6,26-{18-[N-(17-carboxyheptadecanoyl)-L-γ-glutamyl]-10-oxo-3,6,12,15-tetraoxa-9,18-diazaoctadecanoyl}-[8-(2-amino-2-propanoic acid),34-L-arginine]human glucagon-like peptide 1(7-37)]
- AUC/Dose % increase (Co-dosing vs. dual-chamber syringe) [1, 3]: ~13%
- Cmax % increase (Co-dosing vs. dual-chamber syringe) [1, 3]: ~22%
- t½ % increase (Co-dosing vs. dual-chamber syringe) [1, 3]: ~0%
- AUC/Dose [mean ± SD] ([1]; group Dual chamber syringe 2.4/2.4): 1560 ± 229 kg·h/L
- AUC/Dose [mean ± SD] ([1]; group Mono (separate injections per title)): 1380 ± 78.1 kg·h/L
- solubility ([2]; pH above about 5.9, read-out: maximum solubility): > 600 µM
- solubility ([2]; pH below about 5.9, read-out: solubility (dissolved concentration)): < 600 µM
